Assay results taken from paper PMC5683375, “Vasculotide reduces pulmonary hyperpermeability in experimental pneumococcal pneumonia” (Critical Care, 2017).
pKd: −log10 of the molar value. “Also recorded” adds a separate entry of the source. Read-outs that look alike come from different tables or passages of the source.

What was measured:
[1] = tested on: Streptococcus pneumoniae-infected mice; assay: Lung permeability (HSA BALF/plasma ratio) in Streptococcus pneumoniae-infected mice
Procedure: (§1) For all experiments, female C57BL/6 N mice (8 to 10 weeks old, weighing 18 to 20 g; Charles River Laboratories, Sulzfeld, Germany) were used. Animals were housed under specific pathogen-free conditions under a 12–h/12-h light/dark cycle with free access to food and water.
(§2) Mice were anesthetized with ketamine (80 mg/kg) and xylazine (25 mg/kg) and transnasally inoculated with 5 × 10^6 colony-forming units (CFU) of S. pneumoniae (NCTC7978) in 20 μl of sterile PBS as described before [35]. Sham-infected control mice received 20 μl of sterile PBS. After 22 h, 34 h, and 46 h, body weight and rectal temperature were measured, and different dosages of VT (100, 200, or 500 ng in 100 μl of PBS) or PBS were intravenously injected into the tail vein. Twenty-four or forty-eight hours postinfection (p.i.), mice were anesthetized (160 mg/kg ketamine and 75 mg/kg xylazine) and exsanguinated. […] Subsequently, lungs were flushed, and BAL was performed. To determine permeability, HSA (1 mg/75 μl) was intravenously infused 1 h before lung preparation, and the BALF/plasma ratio was calculated as described elsewhere [35]. […] Cytokines from BALF were measured with a multiplex assay (ProcartaPlex; eBioscience), and plasma levels of interleukin (IL)-6 (BD Biosciences) and KC (keratinocyte chemoattractant; R&D Systems) were quantified by ELISA.

[2] = tested on: Streptococcus pneumoniae-infected mice; assay: Blood leukocytes in Streptococcus pneumoniae-infected mice; settings: VT 500 ng i.v.; 24 h and 48 h p.i.; n = 8
Procedure: as §1
Mice were anesthetized with ketamine (80 mg/kg) and xylazine (25 mg/kg) and transnasally inoculated with 5 × 10^6 colony-forming units (CFU) of S. pneumoniae (NCTC7978) in 20 μl of sterile PBS as described before [35]. Sham-infected control mice received 20 μl of sterile PBS. After 22 h, 34 h, and 46 h, body weight and rectal temperature were measured, and different dosages of VT (100, 200, or 500 ng in 100 μl of PBS) or PBS were intravenously injected into the tail vein. Twenty-four or forty-eight hours postinfection (p.i.), mice were anesthetized (160 mg/kg ketamine and 75 mg/kg xylazine) and exsanguinated. […] Subsequently, lungs were flushed, and BAL was performed. […] Blood leukocytes were quantified using a scil Vet ABC Hematology Analyzer (scil animal care company GmbH, Viernheim, Germany).

[3] = tested on: Streptococcus pneumoniae-infected mice; assay: BALF cytokines (multiplex assay) in Streptococcus pneumoniae-infected mice; settings: VT 500 ng i.v., n = 8
Procedure: as §1, §2

abdominal sepsis = tested on: abdominal sepsis; design: method as in 3 sources, ref 26 = [26]; PMID 22040774; doi:10.1186/cc10523; 26. Kümpers P Gueler F David S Slyke PV Dumont DJ Park JK Bockmeyer CL Parikh SM Pavenstadt H Haller H The synthetic Tie2 agonist peptide Vasculotide protects against vascular leakage and reduces mort ||| ref 25, 26 = [25]; PMID 21421750; doi:10.1152/ajplung.00459.2010; 25. David S Ghosh CC Kumpers P Shushakova N Van Slyke P Khankin EV Karumanchi SA Dumont D Parikh SM Effects of a synthetic PEG-ylated Tie-2 agonist peptide on endotoxemic lung injury and mortality Am || [26]; PMID 22040774; doi:10.1186/cc10523; 26. Kümpers P Gueler F David S Slyke PV Dumont DJ Park JK Bockmeyer CL Parikh SM Pavenstadt H Haller H The synthetic Tie2 agonist peptide Vasculotide protects against vascular leakage and reduces mort ||| ref 26 (Kümpers et al.); settings: cited from earlier work
hPMVEC = tested on: hPMVEC; design: method as in PMID 21421750; settings: cited from earlier work
[4] = tested on: mice with influenza pneumonia; settings: cited from earlier work
Tie2 [5] = tested on: Tie2; design: method as in PMID 18939935, PMID 21421750, PMID 22040774, PMID 26046800, PMID 25159192; settings: other cell types/tissues; cited from earlier work
mouse Tie2Fc receptor = target: T1, mouse Tie2Fc receptor (Mus musculus, UniProt Q02858); assay: Tryptophan fluorescence spectroscopy, saturation binding of VT to mouse Tie2Fc
T1 construct: Fc (immunoglobulin Fc fusion partner); purchased R&D Systems
Procedure: Binding studies were carried out in 96 well plates (Brand-plates pureGrade reference 781607; BRAND GMBH + CO KG, Wertheim, Germany). Mouse Tie2Fc receptor and human immunoglobulin G (IgG) Fc were obtained from R&D Systems (Minneapolis, MN, USA). Dilutions were prepared in HyClone™ Dulbecco’s PBS (GE Healthcare Life Sciences, Mississauga, ON, Canada). The saturation binding curve was prepared with all ligand dilutions and receptors as 2× concentrations. Equal volumes of ligand and receptor were added to generate a final 1× concentration (500 nM Tie2Fc final concentration). Spectroscopic studies were performed on a SpectraMax M2 fluorometer (Molecular Devices, Sunnyvale, CA, USA). Measurements were taken at an excitation wavelength of 295 nm. Emission scans were set from 360 to 450 nm.
Saturation binding data (Fig. 1a–c) are presented as mean ± SEM and were calculated using normalized one-site specific binding and nonlinear regression. For the Tie2 phosphorylation analysis (Fig. 1d), one-way analysis of variance (with Dunnett’s post hoc multiple comparisons test) was used to compare treatment groups with the vehicle-treated group. All other experimental data are expressed as mean, mean + SEM, or mean ± SEM. Groups were compared using the Mann-Whitney U test followed by the Bonferroni-Holm correction, where indicated. p Values < 0.05 were considered significant. Analyses were performed using Prism version 6.00 software (GraphPad Software, La Jolla, CA, USA).

Tie2 [6] = assay: Tie2 phosphorylation in mouse primary lung microvascular endothelial cells (phospho-Tie2 ELISA); format: cell-based; settings: VT 1, 10, 100, 1000 ng/ml, 15 minutes, serum-containing media; phospho-Tie2 and total Tie2 ELISA; n = 3-6
Procedure: C57BL/6 mouse primary lung microvascular endothelial cells (Cell Biologics, Chicago, IL, USA) were grown in endothelial cell medium with a kit (Cell Biologics) in 20% O2/5% CO2 in a 37 °C humidified chamber and split 1:2 once reaching 90–95% confluency. To examine the activation of Tie2 by VT in mouse primary lung microvascular endothelial cells, 95–100% confluent cells were stimulated with VT (1, 10, 100, and 1000 ng/ml) in serum-containing media for 15 minutes. Human Ang-1 (R&D Systems) was used as a positive control. VT was synthesized, purified, and validated as described before. Cell lysates were collected using lysis buffer recommended in the mouse phospho-Tie-2 enzyme-linked immunosorbent assay (ELISA) kit (R&D Systems); tyrosine-phosphorylated Tie2 and total Tie2 were measured using ELISA kits (mouse phospho-Tie2 and total-Tie2 ELISA kits; R&D Systems). Three to six independent experiments were analyzed.
Saturation binding data (Fig. 1a–c) are presented as mean ± SEM and were calculated using normalized one-site specific binding and nonlinear regression. For the Tie2 phosphorylation analysis (Fig. 1d), one-way analysis of variance (with Dunnett’s post hoc multiple comparisons test) was used to compare treatment groups with the vehicle-treated group. All other experimental data are expressed as mean, mean + SEM, or mean ± SEM. […]

[7] = tested on: acute skin ionizing radiation in mice; settings: cited from earlier work

T1 sequence (Q02858 with tags, fused parts or gaps limits assumed): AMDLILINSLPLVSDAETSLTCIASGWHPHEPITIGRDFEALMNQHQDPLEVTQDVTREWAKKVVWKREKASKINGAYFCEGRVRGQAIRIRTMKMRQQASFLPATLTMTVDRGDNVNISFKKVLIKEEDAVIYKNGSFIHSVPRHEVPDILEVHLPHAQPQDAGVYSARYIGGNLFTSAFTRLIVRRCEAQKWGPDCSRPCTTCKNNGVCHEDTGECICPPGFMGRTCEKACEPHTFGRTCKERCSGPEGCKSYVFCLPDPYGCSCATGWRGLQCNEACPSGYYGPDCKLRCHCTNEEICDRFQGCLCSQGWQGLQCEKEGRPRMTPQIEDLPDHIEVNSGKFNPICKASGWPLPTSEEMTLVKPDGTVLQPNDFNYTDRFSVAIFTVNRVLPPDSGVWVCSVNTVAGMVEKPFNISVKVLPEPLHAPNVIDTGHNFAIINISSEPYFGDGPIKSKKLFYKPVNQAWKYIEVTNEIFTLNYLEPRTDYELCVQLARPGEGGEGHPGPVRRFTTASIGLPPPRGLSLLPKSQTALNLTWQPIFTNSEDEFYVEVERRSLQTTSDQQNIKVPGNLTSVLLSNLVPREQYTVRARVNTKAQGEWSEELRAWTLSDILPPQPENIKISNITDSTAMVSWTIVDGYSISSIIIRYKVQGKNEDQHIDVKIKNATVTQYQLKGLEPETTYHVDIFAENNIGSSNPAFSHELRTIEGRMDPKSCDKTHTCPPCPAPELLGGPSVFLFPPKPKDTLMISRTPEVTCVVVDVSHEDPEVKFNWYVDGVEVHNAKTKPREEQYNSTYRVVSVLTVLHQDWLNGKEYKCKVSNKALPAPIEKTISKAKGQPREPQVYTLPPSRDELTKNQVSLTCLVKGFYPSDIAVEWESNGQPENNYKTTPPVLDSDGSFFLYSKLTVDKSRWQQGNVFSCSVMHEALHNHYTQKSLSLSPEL

Vasculotide [VT]
lung permeability (HSA BALF/plasma ratio), 48 h p.i., second set ([1]; VT 500 ng i.v. at 22, 34, 46 h p.i., Fig. 4b, n = 8, vs PBS): decreased pulmonary barrier disruption; also recorded: Lung permeability was decreased
lung hyperpermeability (HSA BALF/plasma ratio), 48 h p.i. ([1]; VT 500 ng i.v. at 22, 34, 46 h p.i., dose-finding experiment (Fig. 3b), n = 5-7, vs PBS): significant permeability reduction; also recorded: significantly reduced lung hyperpermeability
lung permeability (HSA BALF/plasma ratio), 24 h p.i., second set ([1]; VT 500 ng i.v. at 22 h p.i., Fig. 4a, n = 8, vs PBS): decreased pulmonary barrier disruption; also recorded: Lung permeability was decreased
lung hyperpermeability (HSA BALF/plasma ratio), 24 h p.i. ([1]; VT 500 ng i.v. at 22 h p.i., dose-finding experiment (Fig. 3a), n = 5-7, vs PBS): significant permeability reduction; also recorded: significantly reduced lung hyperpermeability
lung hyperpermeability, dose dependence ([1]; VT 100, 200, 500 ng i.v. from 22 h p.i., 24 h and 48 h p.i.): reduced lung hyperpermeability in a dose-dependent fashion; also recorded: quickly and effectively reduce pulmonary hyperpermeability in a dose-dependent manner
blood leukocytes [2]: unaffected; also recorded: did not differ
BALF cytokine concentrations (except IL-12p40) ([3]; 24 h and 48 h p.i.): not significantly affected; also recorded: not significantly reduced
IL-12p40 levels in BALF, 48 h p.i. ([3]; 48 h p.i.): reduced; also recorded: decreased
protective effect in murine endotoxemia and abdominal sepsis (sepsis part) (abdominal sepsis; abdominal sepsis): protective effect
barrier disruption in experimental sepsis (abdominal sepsis): diminish barrier disruption
local and systemic inflammatory markers after abdominal sepsis (abdominal sepsis; treatment started 2 h after cecal ligation and puncture, ref 26 (Kümpers et al.)): reductions in local and systemic inflammatory markers
protection of endothelial cells from LPS-induced disruption (hPMVEC): protects hPMVEC after LPS stimulation; also recorded: protect endothelial cells from lipopolysaccharide (LPS)-induced disruption
survival of mice with influenza pneumonia [4]: increase the survival
leukocyte influx into the lung in influenza pneumonia ([4]; ref 28 (Sugiyama et al.)): without affecting leukocyte influx into the lung
pulmonary barrier function in influenza pneumonia ([4]; ref 28 (Sugiyama et al.)): protective effect of VT on pulmonary barrier function
virus replication in influenza pneumonia ([4]; ref 28 (Sugiyama et al.)): without affecting leukocyte influx into the lung or repressing virus replication
Tie2 phosphorylation (Tie2 [5]): confirms findings of other studies
saturability of fluorescence intensity with mouse Tie2Fc (mouse Tie2Fc receptor; 500 nM Tie2Fc): saturable
intrinsic fluorescence intensity / binding with mouse Tie2Fc (mouse Tie2Fc receptor; 500 nM Tie2Fc, excitation 295 nm): dose-dependent binding; also recorded: dose-dependent increase in intrinsic fluorescence intensity
pKd (mouse Tie2Fc receptor; 95% confidence interval, 500 nM Tie2Fc, one-site specific binding, read-out: 95% CI of the dissociation constant, mouse Tie2Fc): 7.17 to 8.53
dissociation constant, in words (mouse Tie2Fc receptor; murine Tie2 receptor, discussion): in the low nanomolar range
pKd (mouse Tie2Fc receptor; tryptophan fluorescence, excitation 295 nm, emission 360-450 nm, 500 nM Tie2Fc, PBS, normalized one-site specific binding, nonlinear regression, read-out: dissociation constant of the normalized specific binding of VT to mouse Tie2Fc): 7.46
Tie2 phosphorylation (Tie2 [6]): resulted in Tie2 phosphorylation in a dose-dependent manner; also recorded: dose-dependent phosphorylation of Tie2
acute skin ionizing radiation [7]: protective effect
